One data set deals with HCT-116 cells. The data set is described as follows: MTT antiproliferative assay, HCT-116. The class given is cell-based, human. The following applies: Homo sapiens, HCT-116, 48 h, MTT, mean ± SD, n=3; for inhibition at 100 µM: read-out: % Growth Inhibition at 100 μM HCT-116. On the procedure: (§1) The antiproliferative activity of the target compounds against a normal L02 cell line and the three different human cancer cell lines viz. colorectal (HCT-116), liver (BEL-7402) and liver (HepG2) were evaluated using a standard MTT-based colorimetric assay. All cell lines were obtained from the Key Laboratory of Natural Resources and Functional Molecules of the Changbai Mountain (Yanbian University, Jilin, China) and maintained in Dulbecco’s modified Eagle’s medium (DMEM) and RPMI Media 1640 (RPMI1640), supplemented with 10% fetal bovine serum (FBS) at 37 °C in a humidified atmosphere containing 5% CO2.
(§2) Cells were plated in 96-well plates at appropriate densities to ensure exponential growth throughout the experimental period (9 × 10^3 cells per well) and then allowed to adhere for 24 h. Cells were then treated for 48 h with four serial concentrations (1, 10, 50 and 100 µM) of each compound. 5-fluorouracil (5-FU) was used as a positive control. After 48 h of incubation, 10 µL of MTT solution was added to each well to a final concentration of 2 mg/mL. Plates were then incubated for a further 4 h. After incubation, the MTT solution was removed and 150 µL of DMSO was added to each well for coloration. The plates were shaken vigorously for 10 min at room temperature to ensure complete solubilization. The optical density (OD) was read on a microplate reader (ELx800, BioTek, Highland Park, Winooski, VT, USA) at a wavelength of 492 nm and the data were subsequently analyzed. The percentage of cell growth inhibition was calculated from the following equation: Inhibitory rate (%) = [(1 − (ODtreated-ODblank)/(ODcontrol-ODblank)] × 100.(1)

For a further data set, the system named is BEL-7402 cells. The data set is described as follows: MTT antiproliferative assay, BEL-7402. The class given is cell-based, human. The following applies: Homo sapiens, Bel-7402, 48 h, MTT, mean ± SD, n=3; for inhibition at 100 µM: read-out: % Growth Inhibition at 100 μM BEL-7402. On the procedure:
as §1, §2
(In general: Tetrazolium dyes change colour on reduction, which living cells bring about.)

The next data set relates to HepG2 cells. As to the kind of experiment: MTT antiproliferative assay, HepG2. The class given is cell-based, human. The following applies: Homo sapiens, HepG2, 48 h, MTT, mean ± SD, n=3; for inhibition at 100 µM: read-out: % Growth Inhibition at 100 μM HepG2. Here is the method:
as §1, §2

The next data set deals with L02 cells. As to the kind of experiment: MTT assay on normal liver cells L02. Type of data set: cell-based. The following applies: Homo sapiens, normal liver cells, 48 h, MTT, Table 2, read-out: IC50 Values (μM) L02. On the procedure: as §1
as §2, with “5-fluorouracil (5-FU) was used as a positive control.” left out

Structures are written as SMILES.

On to `COC(=O)[C@@H](NC(=O)[C@]1(C)CCC[C@@]2(C)[C@@H]3CC[C@@]4(C)C[C@]3(CC[C@@H]21)CC4=O)c1ccccc1` [Compound 3a, Methyl(S)-2-phenyl-2-((4R,4aS,6aR,9S,11aR,11bS)-4,9,11b-trimethyl-8-oxotetradecahydro-6a,9-methanocyclohepta[a]naphthalene-4-carboxamido)acetate], for which the melting point (usually the temperature, or range, at which the solid turns liquid) lay in the range of 143 to 145 °C. Besides, in the data set on HCT-116 cells, the inhibition (usually the relative decrease from the control value, in per cent) at 100 µM was 86.26 ± 0.59% and the IC50 (as a rule, the concentration that gives 50% inhibition) is 40.4 ± 0.97 µM. In addition, in the data set on BEL-7402 cells, the inhibition at 100 µM was 80 ± 0.95% and the 50% inhibitory concentration (IC50) was above 100 µM. In the data set on HepG2 cells, the inhibition at 100 µM came to 75.25 ± 0.56% and the IC50 was above 100 µM. For the same compound, the IC50 in the data set with L02 cells was above 100 µM.
On to `C[C@@]12CC[C@@H]3[C@@](CC[C@H]4[C@@]3(C)CCC[C@@]4(C)C(=O)O)(CC1=O)C2` [Isosteviol, isosteviol, reference compound], for which the values for the inhibition at 100 µM in the data set on HCT-116 cells, in the data set on BEL-7402 cells and with HepG2 cells were 34.1 ± 1.89%, 28 ± 1.79% and 11.8 ± 0.88%, respectively. Also, the IC50 with HCT-116 cells, with BEL-7402 cells, in the data set with HepG2 cells and in the data set with L02 cells was above 100 µM throughout.
For `COc1ccc(-n2cc(CNC(=O)COC(=O)[C@]3(C)CCC[C@@]4(C)[C@@H]5CC[C@@]6(C)C[C@]5(CC[C@@H]43)CC6=O)nn2)cc1` [Compound 5c, 2-(((1-(4-methoxyphenyl)-1H-1,2,3-triazol-4-yl)methyl)amino)-2-oxoethyl(4R,4aS,6aR,9S,11aR,11bS)-4,9,11b-trimethyl-8-oxotetradecahydro-6a,9-methanocyclohepta[a]naphthalene-4-carboxylate], the melting point is 71 to 72 °C. Besides, in the data set on HCT-116 cells, the inhibition at 100 µM worked out at 84.6 ± 1.55% and the IC50 stood at 14.4 ± 1.31 µM. Also, in the data set with BEL-7402 cells, the inhibition at 100 µM was 75.6 ± 1.76% and the IC50 is above 100 µM. Further, in the data set on HepG2 cells, the inhibition at 100 µM came out at 82.8 ± 2.02% and inhibition was half-maximal at 12.3 ± 0.77 µM (IC50). Also, the IC50 in the data set on L02 cells was above 100 µM.
For `CCOP(=O)(OCC)C(NC(=O)COC(=O)[C@]1(C)CCC[C@@]2(C)[C@@H]3CC[C@@]4(C)C[C@]3(CC[C@@H]21)CC4=O)c1ccc(C)cc1` (stereo partly drawn) [Compound 6d, 2-(((diethoxyphosphoryl)(p-tolyl)methyl)amino)-2-oxoethyl(4R,4aS,6aR,9S,11aR,11bS)-4,9,11b-trimethyl-8-oxotetradecahydro-6a,9-methanocyclohepta[a]naphthalene-4-carboxylate], the melting point is 119 to 120 °C. In the data set on HCT-116 cells, the inhibition at 100 µM stood at 76.6 ± 2.33% and the IC50 was found to be 18.7 ± 0.17 µM. Further, in the data set with BEL-7402 cells, the inhibition at 100 µM was 51.5 ± 0.68% and half-maximal inhibition (IC50) was put at 60.9 ± 1.37 µM. Also, in the data set on HepG2 cells, the inhibition at 100 µM was 80.64 ± 0.76% and the IC50 turned out to be 13.2 ± 0.86 µM. For the same compound, the IC50 in the data set with L02 cells was above 100 µM.
The compound `C[C@@]12CC[C@@H]3[C@@](CC[C@H]4[C@@]3(C)CCC[C@@]4(C)C(=O)OCC(=O)Nc3ccccc3)(CC1=O)C2` [Compound 4a, 2-oxo-2-(phenylamino)ethyl(4R,4aS,6aR,9S,11aR,11bS)-4,9,11b-trimethyl-8-oxotetradecahydro-6a,9-methanocyclohepta[a]naphthalene-4-carboxylate] yielded a melting point of 154 to 156 °C. Moreover, in the data set on HCT-116 cells, the inhibition at 100 µM came to 60.4 ± 3.11% and the IC50 was 56.6 ± 1.56 µM. In addition, in the data set with BEL-7402 cells, the inhibition at 100 µM is 50.8 ± 2.31% and the IC50 was above 100 µM. In the data set on HepG2 cells, the inhibition at 100 µM stood at 31.2 ± 1.19% and the IC50 was above 100 µM. The IC50 with L02 cells was above 100 µM.
Consider `CCOP(=O)(OCC)C(NC(=O)COC(=O)[C@]1(C)CCC[C@@]2(C)[C@@H]3CC[C@@]4(C)C[C@]3(CC[C@@H]21)CC4=O)c1ccc(OC)cc1` (stereo partly drawn) [Compound 6c, 2-(((diethoxyphosphoryl)(4-methoxyphenyl)methyl)amino)-2-oxoethyl(4R,4aS,6aR,9S,11aR,11bS)-4,9,11b-trimethyl-8-oxotetradecahydro-6a,9-methanocyclohepta[a]naphthalene-4-carboxylate], for which the melting point was 134 to 135 °C. For the same compound, in the data set with HCT-116 cells, the inhibition at 100 µM was 74.1 ± 2.45% and the IC50 is 15.15 ± 0.11 µM. In the data set with BEL-7402 cells, the inhibition at 100 µM turned out to be 50.9 ± 2.68% and the IC50 worked out at 92.6 ± 1.96 µM. In the data set on HepG2 cells, the inhibition at 100 µM is 41.4 ± 1.86% and the IC50 was above 100 µM. For the same compound, in the data set on L02 cells, the IC50 is above 100 µM.
In the case of `C[C@@]12CC[C@@H]3[C@@](CC[C@H]4[C@@]3(C)CCC[C@@]4(C)C(=O)OCC(=O)NCc3cn(-c4ccc(Cl)cc4)nn3)(CC1=O)C2` [Compound 5b, 2-(((1-(4-chlorophenyl)-1H-1,2,3-triazol-4-yl)methyl)amino)-2-oxoethyl(4R,4aS,6aR,9S,11aR,11bS)-4,9,11b-trimethyl-8-oxotetradecahydro-6a,9-methanocyclohepta[a]naphthalene-4-carboxylate], the melting point is 80 to 82 °C. Moreover, in the data set on HCT-116 cells, the inhibition at 100 µM was 85.6 ± 1.34% and the IC50 was determined as 7.44 ± 0.37 µM. Also, in the data set with BEL-7402 cells, the inhibition at 100 µM worked out at 90.5 ± 1.04% and the IC50 came out at 22.5 ± 0.58 µM. Besides, in the data set with HepG2 cells, the inhibition at 100 µM came out at 82.1 ± 1.82% and inhibition was half-maximal at 11.7 ± 0.23 µM (IC50). Also, the IC50 in the data set with L02 cells was above 100 µM.
`C[C@@]12CC[C@@H]3[C@@](CC[C@H]4[C@@]3(C)CCC[C@@]4(C)C(=O)OCC(=O)N3CCN(c4ccccc4)CC3)(CC1=O)C2` [Compound 2c, 2-oxo-2-(4-phenylpiperazin-1-yl)ethyl(4R,4aS,6aR,9S,11aR,11bS)-4,9,11b-trimethyl-8-oxotetradecahydro-6a,9-methanocyclohepta[a]naphthalene-4-carboxylate] came in with a melting point of 143 to 144 °C. The inhibition at 100 µM with HCT-116 cells was 15.7 ± 0.61%. In the data set with BEL-7402 cells, the inhibition at 100 µM was 40.5 ± 0.87%. Besides, in the data set with HepG2 cells, the inhibition at 100 µM is below 10%.
`CCOP(=O)(OCC)C(NC(=O)COC(=O)[C@]1(C)CCC[C@@]2(C)[C@@H]3CC[C@@]4(C)C[C@]3(CC[C@@H]21)CC4=O)c1ccc(Cl)c(Cl)c1` (stereo partly drawn) [Compound 6e, 2-(((3,4-dichlorophenyl)(diethoxyphosphoryl)methyl)amino)-2-oxoethyl(4R,4aS,6aR,9S,11aR,11bS)-4,9,11b-trimethyl-8-oxotetradecahydro-6a,9-methanocyclohepta[a]naphthalene-4-carboxylate] showed a melting point of 168 to 169 °C. In the data set with HCT-116 cells, the inhibition at 100 µM turned out to be 43.5 ± 0.56%. In addition, the inhibition at 100 µM in the data set on BEL-7402 cells came out at 49.9 ± 1.26%. Also, in the data set on HepG2 cells, the inhibition at 100 µM worked out at 39.5 ± 1.37%.
The like results for `CON(C)C(=O)[C@]1(C)CCC[C@@]2(C)[C@@H]3CC[C@@]4(C)C[C@]3(CC[C@@H]21)CC4=O` [Compound 1c, (4R,4aS,6aR,9S,11aR,11bS)-N-methoxy-N,4,9,11b-tetramethyl-8-oxotetradecahydro-6a,9-methanocyclohepta[a]naphthalene-4-carboxamide] were, in that order, 144 to 145 °C, below 10%, 31.3 ± 1.22% and below 10%.
In turn, `COc1ccc(OC)c(NC(=O)COC(=O)[C@]2(C)CCC[C@@]3(C)[C@@H]4CC[C@@]5(C)C[C@]4(CC[C@@H]32)CC5=O)c1` [Compound 4j, 2-((2,5-dimethoxyphenyl)amino)-2-oxoethyl(4R,4aS,6aR,9S,11aR,11bS)-4,9,11b-trimethyl-8-oxotetradecahydro-6a,9-methanocyclohepta[a]naphthalene-4-carboxylate] displayed a melting point of 166 to 168 °C. In addition, the inhibition at 100 µM in the data set on HCT-116 cells is below 10%. Besides, in the data set with BEL-7402 cells, the inhibition at 100 µM worked out at 31.3 ± 1.76%. The inhibition at 100 µM in the data set with HepG2 cells was below 10%.

These data come from publication PMC6337650 (Molecules, 2018).
